From patent publication US20110092488A1, “Quninoline Methanol Compounds for the Treatment and Prevention of Parasitic Infections” (priority 2005, published 2011)
Values after ≈ are worked out from the molar mass of the structure shown. Read-outs that look alike come from different tables or passages of the source.

Key:
[1] = test system: primary rat forebrain neurons; assay: Neurocytotoxicity assay (MTT)
Method: The neurocytotoxicity assay of AAQMs was conducted as per Dow et al.; The antimalarial potential of 4-quinolinecarbinolamines may be limited due to neurotoxicity and cross-resistance in mefloquine-resistant Plasmodium falciparum strains; Chemother. (48) 2624-2632 (2004) and is incorporated herein, by reference. This assay utilizes primary rat forebrain neurons and is a multi-endpoint screen. […] The AAQMs outlined in Table 1 were screened at 10, 100 and 1000 μM in triplicate, and the reduction in viability observed was determined using the 3-(4,5-dimethylthiazol-2-yl)-2,5-diphenyltetrazolium bromide (MTT) assay as per Dow et al., discussed above. Approximate IC50 values were calculated on the basis of the level of inhibition observed at each concentration. Full dose response assays were run for mefloquine and WR069878 with two fold dilutions (n=6 wells per dilution) and 11 dilutions for each drug. IC50s were calculated using Prism. Each time the assay is conducted, 20 μM mefloquine is included, as a control. […] Assays are re-run if the loss of viability induced by mefloquine is <40% or >60%. Neuroprotection experiments with 6,7-dinitroquinoxaline-2,3-dione (DNQX) and magnesium were performed as per Dow et al.; Transcriptional profiling of mefloquine-induced disruption of calcium homeostasis in neurons in vitro; Genomics (86)539-550 (2005), which is incorporated by reference, herein. Neurons were exposed to DNQX (100 μM) or magnesium (12 mM) for 5 min, followed by mefloquine (25 μM) or WR069878 (250 μM) for 20 min after which reduction in cell viability was determined. […] DNQX is an inhibitor of non-N-methyl-D-aspartate (NMDA) receptors, whilst magnesium inhibits the functioning of the inositol 1,4,5-trisphosphate (IP3)-mediated calcium signaling pathway at several points. The effects of mefloquine and WR069878 on neuronal calcium homeostasis were assessed utilizing confocal microscopy as per Dow et al, as discussed in Antimicrob Agents Chemother. (48)2624-2632 (2004), cited above, and incorporated by reference, herein. Briefly neurons were loaded with calcium sensitive dye Fluo 3-A for 1 h and were washed prior to image experiments. Neurons were ‘spiked’ with 100 μM mefloquine or WR069878. Subsequent changes in neuronal calcium homeostasis were recorded as fluctuations in the emitted fluorescence of fluo-3-complexed calcium at 530 nm (excitation was 488 nm). Sequential image scans of fields containing 5-25 neurons were used to construct temporal profiles. Scans were made at 10 s intervals. Fluorescence levels for each neuron were normalized 12 to time zero values. Data were then pooled from three and five independent experiments for mefloquine and WR069878 respectively.

P. falciparum TM91C235 = assay: In vitro antimalarial activity against P. falciparum TM91C235; format: cell-based, Plasmodium falciparum
P. falciparum TM90C2A = assay: In vitro antimalarial activity against P. falciparum TM90C2A; format: cell-based, Plasmodium falciparum
Method: (§1) The in vitro activities of AAQMs against P. falciparum strains W2, D6, TM91C235 and TM90C2A were evaluated using the method of Desjardins et al. as modified by Milhous et al. W2 is chloroquine resistant and mefloquine sensitive, D6 is chloroquine sensitive but naturally less susceptible to mefloquine, TM91C235 is resistant to mefloquine, chloroquine and pyrimethamine as is TM90C2A, however this latter parasite is a two pfmdr1 copy strain. We routinely run mefloquine in this screen as a control to ensure assay validity.

P. falciparum D6 = assay: In vitro antimalarial activity against P. falciparum D6; format: cell-based, Plasmodium falciparum
Method: as §1
The combined effects of azithromycin (as represented by compound 196 on the horizontal axes of FIG. 4 through 6) and WR074086 (as represented by compound 14885 on vertical axes of FIGS. 4 through 6) against three strains of P. falciparum were investigated using isobologram analysis. First, the IC50s of each compound were determined as described above.

[2] = test system: Balb/c 3T3 mouse fibroblast cells; assay: 3T3 neutral red uptake (NRU) phototoxicity test; format: cell-based
Source text: A pharmacophore for phototoxicity was developed to be used as an in silico screening tool to determine the minimum phototoxic concentration for a number of AAQMS (WR069878 and those indicated in Table 5). Minimum phototoxic concentration in a yeast assay for a number of AAQMS, as per Ison et al.; Phototoxicity of Quinoline methanols and other drugs in mice and yeast; J. Invest. Dermatol. (52)193-198 (1969) were used to generate a three-dimensional pharmacophore model using the HypoGen algorithm of the […]® (Accelrys software Inc.) methodology as per Bhattacharjee et al.; A 3D QSAR pharmacophore model and quantum chemical structure—activity analysis of chloroquine(CQ)-resistance reversal; J. Chem Inf. Comput Sci. (42) 1212-1220 (2002), and Dow et al.; as discussed in Antimicrob Agents Chemother. (48)2624-2632 (2004), cited above, both Bhattacharjee et al. and Dow et al, incorporated herein, by reference. The structures of clinically used quinoline methanols were mapped onto the pharmacophores and estimated values for minimum phototoxic concentration were generated. The 3T3 neutral red uptake (NRU) phototoxicity test, conducted by MB Research Laboratories (Spinnerstown, Pa.), was used to identify quinoline methanols (WR069878 and those in Table 5) that have the potential to exert in vivo phototoxicity after systemic application. Briefly, the central 60 wells of two 96-well plates per AAQM were seeded with Balb/c 3T3 mouse fibroblast cells and maintained in culture for 24 hrs. These plates were then pre-incubated with a range of eight different concentrations of test compound (six wells per concentration) for one hour. Next, one plate was treated with a UVA dose of 5 J/cm2 by irradiating for 50 min at 1.7 mW/cm2, whereas the other plate remained non-treated and in the dark. Next, the treatment medium was replaced with culture medium and cell viability was determined after 24 hrs by measuring neutral red uptake for 3 hrs. Finally, the 3T3 NRU Phototox Prediction Software (version 2.0, ZEBET) was used to calculate EC50 values and Photo-Irritant Factors (PIF) for each compound. […]

P. falciparum W2 = assay: In vitro antimalarial activity against P. falciparum W2; format: cell-based, Plasmodium falciparum
Method: as §1

Question: `CCCCN(CCCC)CC(O)c1cc(-c2ccc(Cl)cc2)nc2cc(Cl)c(C)cc12` (stereo not drawn) [WR069878] was tested. Which IC50 ([1]; read-out: Neurotoxicity IC50, full dose response, FIG. 2(a)) did it give?
Answer: 242 µM

Question: What about the IC50 ([1]; read-out: Neurotoxicity ranking (IC50 in μM), approximate IC50 from screen at 10, 100 and 1000 μM, MTT) of the same molecule?
Answer: 200 µM

Question: And the “Activity against P. falciparum TM91C235 (IC50 in ng/ml)” value (P. falciparum TM91C235)?
Answer: 1.5 ng/mL

Question: What about the “TM91C235 IC90” value (P. falciparum TM91C235; Table 2) of the same molecule?
Answer: 3.3 ng/mL

Question: And the “IC90 against TM91C235” value (P. falciparum TM91C235; text b26)?
Answer: 11.7 ng/mL (≈ 0.0255 µM)

Question: And the “IC90 against TM90C2A” value (P. falciparum TM90C2A)?
Answer: 16 ng/mL (≈ 0.0348 µM)

Question: And the “IC90 against D6” value (P. falciparum D6)?
Answer: 5.3 ng/mL (≈ 0.0115 µM)

Question: And the “Photo Irritant Factor (PIF)” value [2]?
Answer: > 100

Question: What about the “IC90 against W2” value (P. falciparum W2) of the same molecule?
Answer: 0.49 ng/mL (≈ 0.00107 µM)
